Test results taken from article PMC11078746 (Nature, 2024).
Values joined by “and” are separate entries in the source; they are usually repeats but may differ in a detail not shown here. Identical values can stand only once. Like-named read-outs stand apart in the source and are kept apart here.

What was measured:
[1] = system: JHUEM1; test: CFA 10-14 day clonogenic assay; format: cell-based; conditions: Homo sapiens
[2] = system: DLD-1 (HCT15); test: CFA 10-14 day clonogenic assay; format: cell-based; conditions: Homo sapiens
[3] = system: LS513; test: CFA 10-14 day clonogenic assay; format: cell-based; conditions: Homo sapiens, LS-513
[4] = system: SNUC4; test: CFA 10-14 day clonogenic assay; format: cell-based; conditions: Homo sapiens, SNU-C4
[5] = system: HEC251; test: 4 day proliferation assay (CellTiter-Glo); conditions: Homo sapiens, HEC-251, 96 h, read-out: 4 day assay GI50
[6] = system: microsatellite-stable (MSS) cells; test: Clonogenic assay, 10-to-14-day; conditions: 10-to-14-day clonogenic assay
[7] = system: WRN protein in MSI and MSS cells; test: WRN degradation (immunoblot, ELISA); format: cell-based, human
Method: A list of all of the antibodies is provided in Supplementary Table 2. […] The plates were washed in PBS and 200 µl per well of blocking reagent added (PBS, 0.05% Tween-20, 5% skimmed milk), and the plates were incubated for a minimum of 2 h at room temperature. […] The plates were then washed and 50 µl of secondary antibody per well diluted in blocking buffer was added and the plates were incubated overnight at 4 °C. The next day, 50 µl of tertiary antibody was added per well buffer and the plates were incubated for 2 h at room temperature. […] The plates were shaken and luminescence was detected immediately on the Synergy HT microplate reader.

[8] = system: SNU520; test: 4 day proliferation assay (CellTiter-Glo); conditions: Homo sapiens, 96 h, read-out: 4 day assay GI50
[9] = HRO761 blood PK in SW48 tumour-bearing mice; format: in vivo, mouse; conditions: for concentration at 4 h / concentration at 8 h / concentration at 0.5 h / concentration at 1 h / concentration at 2 h / concentration at 24 h / AUC: female, whole blood; for concentration at 4 h / concentration at 8 h / concentration at 0.5 h / concentration at 1 h / concentration at 2 h / concentration at 24 h: Free HRO761 blood concentration
Method: All animal studies were conducted in accordance with ethics and procedures covered by permit BS-2275 and BS-1975 issued by the Kantonales Veterinäramt Basel-Stadt and in strict adherence to guidelines of the Eidgenössisches Tierschutzgesetz and the Eidgenössische Tierschutzverordnung, Switzerland. All animal studies were approved by the internal ethics committee. All animals had access to food and water ad libitum and were identified with transponders. They were housed in a specific-pathogen-free facility in IVC racks under a 12 h–12 h light–dark cycle. To establish cell-line-derived xenograft models, 6–7-week-old female athymic nude (Crl:NU(NCr)-Foxn1^nu) or SCID-BEIGE (CB17.Cg-PrkdcscidLystbg-J/Crl) mice from Charles River were engrafted subcutaneously with 5 million tumour cells in HBSS (H6648, Sigma-Aldrich). For SNU-407, Lovo, IM95, RL95.2, Ishikawa and IGROV-1, the cells were concentrated in 50% Matrigel (354234, Corning). Patient-derived xenografts were induced and expanded by transplantation as previously described. […] For the efficacy experiment, mice were randomized into groups (n = 5–6) for a mean tumour size of 100–150 mm^3. […] Blood samples were collected on day 7 and 91. […] Tumour responses are reported with the measures of tumour volumes from the treatment start. […] Animals were randomized (n = 3) and tumour samples were collected at 0, 1, 4, 8 and 24 h on the first day and then collected 4 h after the last treatment on day 3, 8, 10, 14 (including a 24 h timepoint), 17 and 21. Tumours were excised, weighed, either frozen in liquid nitrogen and cryogenic dry pulverized with the CryoPrep system (model CP-02, Covaris) or processed to FFPE after fixation. […] On day 12, blood samples were collected for PK analysis. On the last day (3 h after the last treatment), tumours were excised, weighed, frozen in liquid nitrogen and cryogenic dry pulverized for PD analysis.
PK parameters were determined by non-compartmental analysis. Intravenous bolus studies in mouse, rat and dog were performed at 1, 1 and 0.1 mg per kg respectively (Extended Data Table 1).

CCc1c(N2CCN(C(=O)c3ncnc(C)c3O)CC2)c(=O)n2nc(C3=CCOCC3)nc2n1CC(=O)Nc1ccc(C(F)(F)F)cc1Cl [HRO761]
GI50 [1]: 0.035 µM | GI50 [2]: ≥ 10 µM | GI50 [3]: ≥ 10 µM | GI50 [4]: 0.035 µM | GI50 [5]: ≥ 10 µM | effect on viability [6]: no effect | WRN degradation, dependence on MSI/MSS status [7]: only in MSI cells | GI50 [8]: ≥ 10 µM | Free HRO761 blood concentration ([9]; 20mg/kg po, qd, 0.5 h post treatment, single mouse): 1.505 µM and 0.703 µM and 1.278 µM | Free HRO761 blood concentration ([9]; 20mg/kg po, qd, 1 h, single mouse): 0.984 µM and 0.274 µM and 0.743 µM | Free HRO761 blood concentration ([9]; 20mg/kg po, qd, 2 h, single mouse): 0.245 µM and 0.085 µM and 0.166 µM | Free HRO761 blood concentration ([9]; 20mg/kg po, qd, 4 h, single mouse): 0.104 µM and 0.131 µM | Free HRO761 blood concentration ([9]; 20mg/kg po, qd, 8 h, single mouse): 0.145 µM and 0.122 µM | Free HRO761 blood concentration ([9]; 20mg/kg po, qd, 24 h, single mouse): 0.008 µM and 0.006 µM and 0.002 µM | Free HRO761 blood concentration ([9]; 40mg/kg, 0.5 h, single mouse): 3.970 µM and 2.544 µM | Free HRO761 blood concentration ([9]; 40mg/kg, 1 h, single mouse): 2.426 µM and 1.276 µM | Free HRO761 blood concentration ([9]; 40mg/kg, 2 h, single mouse): 0.355 µM and 0.442 µM and 0.166 µM | Free HRO761 blood concentration ([9]; 40mg/kg, 4 h, single mouse): 0.164 µM and 0.089 µM | Free HRO761 blood concentration ([9]; 40mg/kg, 8 h, single mouse): 0.251 µM and 0.168 µM | Free HRO761 blood concentration ([9]; 40mg/kg, 24 h, single mouse): 0.004 µM and 0.015 µM and 0.019 µM | Free HRO761 blood concentration ([9]; 60mg/kg, 0.5 h, single mouse): 5.178 µM and 5.802 µM and 12.609 µM | Free HRO761 blood concentration ([9]; 60mg/kg, 1 h, single mouse): 2.372 µM and 2.688 µM and 8.368 µM | Free HRO761 blood concentration ([9]; 60mg/kg, 2 h, single mouse): 0.484 µM and 0.423 µM and 1.801 µM | Free HRO761 blood concentration ([9]; 60mg/kg, 4 h, single mouse): 0.455 µM and 0.299 µM and 0.197 µM | Free HRO761 blood concentration ([9]; 60mg/kg, 8 h, single mouse): 0.237 µM and 0.241 µM | Free HRO761 blood concentration ([9]; 60mg/kg, 24 h, single mouse): 0.050 µM and 0.025 µM and 0.021 µM | Free HRO761 blood concentration ([9]; 120mg/kg, 0.5 h, single mouse): 17.511 µM and 15.342 µM | Free HRO761 blood concentration ([9]; 120mg/kg, 1 h, single mouse): 10.912 µM and 17.320 µM | Free HRO761 blood concentration ([9]; 120mg/kg, 2 h, single mouse): 3.175 µM and 5.721 µM | Free HRO761 blood concentration ([9]; 120mg/kg, 4 h, single mouse): 0.693 µM and 0.631 µM | Free HRO761 blood concentration ([9]; 120mg/kg, 8 h, single mouse): 0.515 µM and 0.718 µM | Free HRO761 blood concentration ([9]; 120mg/kg, 24 h, single mouse): 0.210 µM and 0.035 µM and 0.095 µM | concentration at 4 h ([9]; mouse, oral, 20 mg/kg, 20mg/kg po, qd, 4 h, single mouse): 176 nM | concentration at 8 h ([9]; mouse, oral, 20 mg/kg, 20mg/kg po, qd, 8 h, single mouse): 154 nM | concentration at 0.5 h ([9]; mouse, oral, 20 mg/kg, Mean, 20mg/kg po, qd, 0.5 h): 1160 nM | concentration at 1 h ([9]; mouse, oral, 20 mg/kg, Mean, 20mg/kg po, qd, 1 h): 670 nM | concentration at 2 h ([9]; mouse, oral, 20 mg/kg, Mean, 20mg/kg po, qd, 2 h): 170 nM | concentration at 4 h ([9]; mouse, oral, 20 mg/kg, Mean, 20mg/kg po, qd, 4 h): 140 nM | concentration at 8 h ([9]; mouse, oral, 20 mg/kg, Mean, 20mg/kg po, qd, 8 h): 140 nM | concentration at 24 h ([9]; mouse, oral, 20 mg/kg, Mean, 20mg/kg po, qd, 24 h): 5.15 nM | concentration at 0.5 h ([9]; mouse, oral, 40 mg/kg, Mean, 0.5 h): 3140 nM | concentration at 1 h ([9]; mouse, oral, 40 mg/kg, Mean, 1 h): 1860 nM | concentration at 2 h ([9]; mouse, oral, 40 mg/kg, Mean, 2 h): 320 nM | concentration at 4 h ([9]; mouse, oral, 40 mg/kg, Mean, 4 h): 130 nM | concentration at 8 h ([9]; mouse, oral, 40 mg/kg, Mean, 8 h): 200 nM | concentration at 24 h ([9]; mouse, oral, 40 mg/kg, Mean, 24 h): 12.9 nM | concentration at 0.5 h ([9]; mouse, oral, 40 mg/kg, 0.5 h, single mouse): 2910 nM | concentration at 1 h ([9]; mouse, oral, 40 mg/kg, 1 h, single mouse): 1890 nM | concentration at 4 h ([9]; mouse, oral, 40 mg/kg, 4 h, single mouse): 124 nM | concentration at 8 h ([9]; mouse, oral, 40 mg/kg, 8 h, single mouse): 178 nM | concentration at 0.5 h ([9]; mouse, oral, 60 mg/kg, Mean, 0.5 h): 7860 nM | concentration at 1 h ([9]; mouse, oral, 60 mg/kg, Mean, 1 h): 4480 nM | concentration at 2 h ([9]; mouse, oral, 60 mg/kg, Mean, 2 h): 900 nM | concentration at 4 h ([9]; mouse, oral, 60 mg/kg, Mean, 4 h): 320 nM | concentration at 8 h ([9]; mouse, oral, 60 mg/kg, Mean, 8 h): 250 nM | concentration at 24 h ([9]; mouse, oral, 60 mg/kg, Mean, 24 h): 32.2 nM | concentration at 8 h ([9]; mouse, oral, 60 mg/kg, 8 h, single mouse): 276 nM | concentration at 0.5 h ([9]; mouse, oral, 120 mg/kg, Mean, 0.5 h): 15900 nM | concentration at 1 h ([9]; mouse, oral, 120 mg/kg, Mean, 1 h): 13900 nM | concentration at 2 h ([9]; mouse, oral, 120 mg/kg, Mean, 2 h): 4010 nM | concentration at 4 h ([9]; mouse, oral, 120 mg/kg, Mean, 4 h): 610 nM | concentration at 8 h ([9]; mouse, oral, 120 mg/kg, Mean, 8 h): 620 nM | concentration at 24 h ([9]; mouse, oral, 120 mg/kg, Mean, 24 h): 110 nM | concentration at 0.5 h ([9]; mouse, oral, 120 mg/kg, 0.5 h, single mouse): 14800 nM | concentration at 1 h ([9]; mouse, oral, 120 mg/kg, 1 h, single mouse): 13500 nM | concentration at 2 h ([9]; mouse, oral, 120 mg/kg, 2 h, single mouse): 3120 nM | concentration at 4 h ([9]; mouse, oral, 120 mg/kg, 4 h, single mouse): 496 nM | concentration at 8 h ([9]; mouse, oral, 120 mg/kg, 8 h, single mouse): 620 nM | AUC ([9]; mouse, po, 10 mg/kg, read-out: AUCb, u above GI90, u): 0.09 µM·h | AUC ([9]; mouse, po, 20 mg/kg, read-out: AUCb, u above GI90, u): 0.52 µM·h | AUC ([9]; mouse, po, 30 mg/kg, read-out: AUCb, u above GI90, u): 2.14 µM·h | AUC ([9]; mouse, po, 40 mg/kg, read-out: AUCb, u above GI90, u): 4 µM·h | AUC ([9]; mouse, po, 60 mg/kg, read-out: AUCb, u above GI90, u): 6.08 µM·h | AUC ([9]; mouse, po, 120 mg/kg, read-out: AUCb, u above GI90, u): 27 µM·h | AUC ([9]; oral, mouse at 40 mg/kg qd, read-out: Efficacious daily AUC): 31 µM·h
